Source: patent US20260159536A1, “AKR1C3-ACTIVATED DNA ALKYLATING AGENT, AND MEDICAL APPLICATION THEREOF” (ASCENTAWITS PHARMACEUTICALS, LTD., priority 2021, published 2026)

Test system: HuPrime model LI6643 human liver cancer
Assay: In vivo pharmacodynamics, liver cancer LI6643 PDX model (Compound A, Sorafenib; section 4.8)
Parameters: species or system BALB/c nude mice
Settings: for Relative tumor volume (x ± S) / T/C (%) / TGI (%) / Tumor volume (x ± S): QDx5, 2 days off, 2 weeks off, QDx5, i.p.
Method: Experiment Instruction: BALB/c nude mice were subcutaneously inoculated with HuPrime® model LI6643 tumor blocks to establish a subcutaneous transplantation tumor model of human liver cancer. […] The efficacy was evaluated according to the relative tumor inhibition rate TGI (%), and the safety was evaluated according to the change in body weight and the death of the animals.

## O=[N+]([O-])c1ccc(C(OP(=O)(N2CC2)N2CC2)C(F)(F)F)cc1Oc1ccc(-c2ccc(F)cc2)c(F)c1 (racemic) [Compound A]
1.25 mg/kg i.p., Day 0
  Tumor volume: 126.02 mm^3
1.25 mg/kg i.p., Day 4
  Tumor volume: 181.97 mm^3
1.25 mg/kg i.p., Day 7
  Tumor volume: 270.85 mm^3
1.25 mg/kg i.p., Day 11
  Tumor volume: 264.04 mm^3
1.25 mg/kg i.p., Day 14
  Tumor volume: 197.40 mm^3
1.25 mg/kg i.p., Day 18
  Tumor volume: 177.65 mm^3
1.25 mg/kg i.p., Day 21
  Tumor volume: 102.13 mm^3
1.25 mg/kg i.p., Day 25
  Tumor volume: 90.41 mm^3
1.25 mg/kg i.p., Day 28
  Tumor volume: 73.75 mm^3
1.25 mg/kg i.p., Day 32
  Tumor volume: 49.39 mm^3
1.25 mg/kg i.p., Day 35
  Tumor volume: 35.61 mm^3
1.25 mg/kg i.p., Day 39
  Tumor volume: 31.79 mm^3
1.25 mg/kg i.p., Day 42
  Tumor volume: 25.59 mm^3
1.25 mg/kg i.p., Day 46
  Tumor volume: 19.34 mm^3
1.25 mg/kg i.p., Day 49
  Tumor volume: 12.51 mm^3
1.25 mg/kg i.p., Day 53
  Tumor volume: 9.04 mm^3
1.25 mg/kg, Day 35
  Relative tumor volume (x ± S): 0.27 ± 0.14
  T/C (%): 1.89%
  TGI (%): 98.11%
  Tumor volume (x ± S): 35.61 ± 18.63
2.5 mg/kg i.p., Day 0
  Tumor volume: 125.92 mm^3
2.5 mg/kg i.p., Day 4
  Tumor volume: 199.12 mm^3
2.5 mg/kg i.p., Day 7
  Tumor volume: 278.32 mm^3
2.5 mg/kg i.p., Day 11
  Tumor volume: 191.74 mm^3
2.5 mg/kg i.p., Day 14
  Tumor volume: 167.14 mm^3
2.5 mg/kg i.p., Day 18
  Tumor volume: 154.33 mm^3
2.5 mg/kg i.p., Day 21
  Tumor volume: 100.94 mm^3
2.5 mg/kg i.p., Day 25
  Tumor volume: 103.28 mm^3
2.5 mg/kg i.p., Day 28
  Tumor volume: 93.12 mm^3
2.5 mg/kg i.p., Day 32
  Tumor volume: 74.85 mm^3
2.5 mg/kg i.p., Day 35
  Tumor volume: 56.62 mm^3
2.5 mg/kg i.p., Day 39
  Tumor volume: 39.85 mm^3
2.5 mg/kg i.p., Day 42
  Tumor volume: 27.34 mm^3
2.5 mg/kg i.p., Day 46
  Tumor volume: 14.83 mm^3
2.5 mg/kg i.p., Day 49
  Tumor volume: 12.00 mm^3
2.5 mg/kg i.p., Day 53
  Tumor volume: 12.86 mm^3
2.5 mg/kg, Day 35
  Relative tumor volume (x ± S): 0.45 ± 0.07
  T/C (%): 3.19%
  TGI (%): 96.81%
  Tumor volume (x ± S): 56.62 ± 9.62
5 mg/kg i.p., Day 0
  Tumor volume: 126.93 mm^3
5 mg/kg i.p., Day 4
  Tumor volume: 178.97 mm^3
5 mg/kg i.p., Day 7
  Tumor volume: 214.95 mm^3
5 mg/kg i.p., Day 11
  Tumor volume: 132.13 mm^3
5 mg/kg i.p., Day 14
  Tumor volume: 63.74 mm^3
5 mg/kg i.p., Day 18
  Tumor volume: 60.36 mm^3
5 mg/kg i.p., Day 21
  Tumor volume: 40.93 mm^3
5 mg/kg i.p., Day 25
  Tumor volume: 24.91 mm^3
5 mg/kg i.p., Day 28
  Tumor volume: 21.48 mm^3
5 mg/kg i.p., Day 32
  Tumor volume: 8.71 mm^3
5 mg/kg i.p., Day 35
  Tumor volume: 7.12 mm^3
5 mg/kg i.p., Day 39
  Tumor volume: 6.77 mm^3
5 mg/kg i.p., Day 42
  Tumor volume: 5.57 mm^3
5 mg/kg i.p., Day 46
  Tumor volume: 4.27 mm^3
5 mg/kg i.p., Day 49
  Tumor volume: 4.12 mm^3
5 mg/kg i.p., Day 53
  Tumor volume: 3.81 mm^3
5 mg/kg, Day 35
  Relative tumor volume (x ± S): 0.05 ± 0.05
  T/C (%): 0.34%
  TGI (%): 99.66%
  Tumor volume (x ± S): 7.12 ± 7.12
10 mg/kg i.v., Day 0
  Tumor volume: 126.11 mm^3
10 mg/kg i.v., Day 4
  Tumor volume: 160.85 mm^3
10 mg/kg i.v., Day 7
  Tumor volume: 216.99 mm^3
10 mg/kg i.v., Day 11
  Tumor volume: 94.21 mm^3
10 mg/kg i.v., Day 14
  Tumor volume: 72.94 mm^3
10 mg/kg i.v., Day 18
  Tumor volume: 59.48 mm^3
10 mg/kg i.v., Day 21
  Tumor volume: 25.80 mm^3
10 mg/kg i.v., Day 25
  Tumor volume: 21.28 mm^3
10 mg/kg i.v., Day 28
  Tumor volume: 10.93 mm^3
